Literature values as cited in patent US7351424B2, “Enhanced purity trans-lutein-ester compositions and methods of making same” (Bio Lut S.A. de C.V., priority 2004, dated 2008).

Conditions: human, in vivo

Substance: lutein esters
- bioavailability: even better than free lutein
